The molecules below were run against MMP-13CD (catalytic domain of collagenase-3) (Homo sapiens, UniProt P45452) (assay: Thiopeptolide substrate hydrolysis inhibition assay, MMP-13CD). Settings: Table I; thiopeptolide substrate, HEPES pH 7.0, 22° C.; read-out: MMP-13CD IC50.
Assay type: biochemical
From the text: Thiopeptolide substrates show virtually no decomposition or hydrolysis at or below neutral pH in the absence of a matrix metalloproteinase enzyme.
For `C=CCn1c(=O)c2cc(C(=O)OCc3ccccc3)sc2n(C)c1=O` [Example 129, 3-Allyl-1-methyl-2,4-dioxo-1,2,3,4-tetrahydro-thieno[2,3-d]pyrimidine-6-carboxylic acid benzyl ester], the IC50 was 0.16 µM.
For `COc1ccc(CNC(=O)c2cc3c(=O)n(Cc4ccc(C#N)cc4)c(=O)n(C)c3s2)cc1` [Example 64, 3-(4-Cyano-benzyl)-1-methyl-2,4-dioxo-1,2,3,4-tetrahydro-thieno[2,3-d]pyrimidine-6-carboxylic acid 4-methoxy-benzylamide], the IC50 was 0.062 µM.
Work on `Cn1c(=O)n(Cc2ccccc2)c(=O)c2cc(C(=O)NCCc3ccccn3)sc21` [Example 361, 3-Benzyl-1-methyl-2,4-dioxo-1,2,3,4-tetrahydro-thieno[2,3-d]pyrimidine-6-carboxylic acid (2-pyridin-2-yl-ethyl)-amide] yielded an IC50 of 7.7 µM.
`CC(C)CCOC(=O)c1cc2c(=O)n(Cc3ccccc3)c(=O)n(C)c2s1` [Example 184, 3-Benzyl-1-methyl-2,4-dioxo-1,2,3,4-tetrahydro-thieno[2,2-d]pyrimidine-6-caboxylic acid 3-methyl-butyl ester] gave an IC50 greater than 100 µM.
`COc1ccc(CNC(=O)c2cc3c(=O)n(CCC(=O)c4ccc(F)cc4)c(=O)n(C)c3s2)cc1` [Example 270] showed an IC50 of 1.8 µM.
Work on `COc1cc(CNC(=O)c2cc3c(=O)n(CC4CCCCC4)c(=O)n(C)c3s2)ccn1` [Example 371, 3-Cyclohexylmethyl-1-methyl-2,4-dioxo-1,2,3,4-tetrahydro-thieno[2,3-d]pyrimidine-6-carboxylic acid (2-methoxy-pyridin-4-ylmethyl)-amide] yielded an IC50 of 0.22 µM.
Work on `COc1ccc(CNC(=O)c2cc3c(=O)n(CCNS(=O)(=O)c4ccc(Cl)cc4)c(=O)n(C)c3s2)cc1` [Example 231, 3-[2-(4-Chloro-benzenesulfonylamino)-ethyl]-1-methyl-2,4-dioxo-1,2,3,4-tetrahydro-thieno[2,3-d]pyrimidine-6-carboxylic acid 4-methoxy-benzylamide] yielded an IC50 of 2.9 µM.
`COc1ccc(CNC(=O)c2cc3c(=O)n(C/C=C/C(=O)O)c(=O)n(C)c3s2)cc1` [Example 226, (E)-4-[6-(4-Methoxy-benzylcarbamoyl)-1-methyl-2,4-dioxo-1,4-dihydro-2H-thieno[2,3-d]pyrimidin-3-yl]-but-2-enoic acid] showed an IC50 of 4.9 µM.
For `COc1cccc(CNC(=O)c2cc3c(=O)n(Cc4ccc(OC(C)(C)C(=O)O)cc4)c(=O)n(C)c3s2)c1` [Example 96, 2-{4-[6-(3-Methoxy-benzylcarbamoyl)-1-methyl-2,4-dioxo-1,4-dihydro-2H-thieno[2,3-d]pyrimidin-3-ylmethyl]-phenoxy}-2-methyl-propionic acid], the IC50 was 0.0185 µM.
In the case of `COc1ccc(Br)cc1COC(=O)c1cc2c(=O)n(Cc3ccccc3)c(=O)n(C)c2s1` [Example 196, 3-Benzyl-1-methyl-2,4-dioxo-1,2,3,4-tetrahydro-thieno[2,3-d]pyrimidine-6-carboxylic acid 5-bromo-2-methoxy-benzyl ester], the IC50 is reported as 30 µM.
Work on `Cc1c(C(=O)OCc2ccccc2)sc2[nH]c(=O)n(Cc3ccc(F)cc3)c(=O)c12` [Example 302, 3-(4-Fluoro-benzyl)-5-methyl-2,4-dioxo-1,2,3,4-tetrahydro-thieno[2,3-d]pyrimidine-6-carboxylic acid benzyl ester] yielded an IC50 of 30 µM.
With `Cn1c(=O)n(Cc2ccc(C(=O)O)cc2)c(=O)c2cc(C(=O)NCc3ccc(S(N)(=O)=O)cc3)sc21` [Example 59, 4-[1-Methyl-2,4-dioxo-6-(4-sulfamoyl-benzylcarbamoyl)-1,4-dihydro-2H-thieno[2,3-d]pyrimidin-3-ylmethyl]-benzoic acid] the IC50 was 2 µM.
`COc1ccc(CNC(=O)c2cc3c(=O)n(CCSc4ccccc4)c(=O)n(C)c3s2)cc1` [Example 261] gave an IC50 of 0.58 µM.

Same assay, conditions: Table II; micromolar concentration; HEPES pH 7.0; read-out: IC50 MMP-13CD
`C=Cc1ccc(Cn2c(=O)c3cc(C(=O)OCc4ccccc4)sc3n(C)c2=O)cc1` [Example 20, 1-Methyl-2,4-dioxo-3-(4-vinyl-benzyl)-1,2,3,4-tetrahydro-thieno[2,3-d]pyrimidine-6-carboxylic acid benzyl ester] gave an IC50 of 0.0065 µM.
